{"source": "patent US6284262A", "about": "“Compact dosage unit for buccal administration of a pharmacologically active agent” (priority 1999, dated 2001)", "origin": "cited, not measured here", "key": {"[1]": {"system": "albumin and other proteins", "details": "plasma, adult men"}, "[2]": {"system": "sex hormone-binding protein", "details": "plasma, adult men"}}}
{"smiles": "C[C@]12CC[C@H]3[C@@H](CCC4=CC(=O)CC[C@@]43C)[C@@H]1CC[C@@H]2O", "note": "[testosterone]", "values": [{"measurement": "absorption after oral administration", "value": "well absorbed"}, {"measurement": "therapeutic blood levels via oral administration", "value": "not possible to achieve therapeutic blood levels"}, {"measurement": "degradation during passage through the liver and intestine", "setting": "oral", "value": "quickly degraded"}, {"measurement": "bound to albumin and other proteins", "setting": "[1]", "value": "the remainder"}, {"measurement": "free, or unbound testosterone", "setting": "[1]", "value": "about 2%"}, {"measurement": "testosterone bound to sex hormone-binding protein", "setting": "[2]", "value": "Approximately 40%"}]}
